Data set [1] concerns the target T1, Steroid 17-alpha-hydroxylase/17,20 lyase (Rattus norvegicus, UniProt P11715).
T1 sequence (P11715 whole entry): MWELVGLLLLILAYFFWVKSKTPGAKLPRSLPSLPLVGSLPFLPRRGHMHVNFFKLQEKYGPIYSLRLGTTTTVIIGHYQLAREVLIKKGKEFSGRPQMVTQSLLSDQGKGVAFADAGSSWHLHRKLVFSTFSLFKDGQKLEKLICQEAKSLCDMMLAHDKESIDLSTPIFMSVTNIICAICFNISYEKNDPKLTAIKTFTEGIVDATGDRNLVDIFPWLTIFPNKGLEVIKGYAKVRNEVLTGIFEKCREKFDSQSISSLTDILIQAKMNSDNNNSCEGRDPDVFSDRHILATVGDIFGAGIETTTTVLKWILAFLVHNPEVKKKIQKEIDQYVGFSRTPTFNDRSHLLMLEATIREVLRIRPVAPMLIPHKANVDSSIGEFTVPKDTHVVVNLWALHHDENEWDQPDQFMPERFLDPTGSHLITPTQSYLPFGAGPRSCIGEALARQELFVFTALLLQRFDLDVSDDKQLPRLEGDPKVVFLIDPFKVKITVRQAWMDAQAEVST
As to the kind of experiment: Potency index, ratio of ketoconazole IC50 to compound IC50 for Wistar rat testicular C17,20-lyase.

Data set [2] is described as follows: Growth inhibition of human MCF7 cells at 10 uM after 72 hrs by MTT assay. It counts as functional. The note with it: MCF7, 72 h, read-out: GI.
A short description of data set [3]: Growth inhibition of human MDA-MB-361 cells at 10 uM after 72 hrs by MTT assay. It counts as functional. Conditions: MDA-MB-361, 72 h, read-out: GI.
Data set [4] is described as follows: Growth inhibition of human MDA-MB-361 cells at 30 uM after 72 hrs by MTT assay. The note with it: MDA-MB-361, 72 h, read-out: GI. Format: functional.
The nature of data set [5]: Growth inhibition of human T47D cells at 10 uM after 72 hrs by MTT assay. Format: functional. Conditions: read-out: GI.
The nature of data set [6]: Growth inhibition of human MDA-MB-231 cells at 30 uM after 72 hrs by MTT assay. Format: functional. Conditions: MDA-MB-231, 72 h, read-out: GI.
Data set [7] can be described thus: Growth inhibition of human T47D cells at 30 uM after 72 hrs by MTT assay. Format: functional. Conditions: read-out: GI.
Data set [8] in a line: Growth inhibition of human MDA-MB-231 cells at 10 uM after 72 hrs by MTT assay. The note with it: MDA-MB-231, 72 h, read-out: GI. Format: functional.
The target of data set [9] is T1, Steroid 17-alpha-hydroxylase/17,20 lyase. Nature of the data set: Inhibition of Wistar rat testicular C17,20-lyase assessed as androst-4-ene-3,17-dione formation using [3H]17-hydroxyprogesterone as substrate in presence of NADPH.
A short description of data set [10]: Growth inhibition of human MCF7 cells at 30 uM after 72 hrs by MTT assay. It counts as functional. The note with it: MCF7, 72 h, read-out: GI.

Take `C[C@]12CC[C@H](O)CC1=CC[C@@H]1[C@@H]2CC[C@]2(C)C(c3n[nH]cc3CO)=CC[C@@H]12`: in data set [1], the “Ratio IC50” value worked out at 12. For the same compound, the inhibition of growth at 10 µM in [2], in data set [3], in [5] and in data set [8] was below 20% each time. Further, the inhibition of growth at 30 µM in data set [4] is 35.6%; in data set [6], below 20%; in data set [7], 25.7%; in [10], below 20%. In [9], the IC50 was determined as 0.026 µM.

The values above are taken from ChEMBL document CHEMBL3856198, “Synthesis of novel 17-(4'-formyl)pyrazolylandrosta-5,16-dienes and their derivatives as potent 17α-hydroxylase/C17,20-lyase inhibitors or antiproliferative agents depending on the substitution pattern of the heteroring” (Eur J Med Chem, 2016).
